Experimental findings from ChEMBL document CHEMBL3400066, “2-(Isopropylamino)thieno[3,2-d]pyrimidin-4(3H)-one derivatives as selective phosphodiesterase 7 inhibitors with potent in vivo efficacy” (Bioorg Med Chem Lett, 2015) are described below.

Series [1] concerns the target High affinity 3',5'-cyclic-AMP phosphodiesterase 7A (Homo sapiens, UniProt Q13946). Description: Inhibition of human PDE7A expressed in insect cells assessed as inhibition of [3H]cAMP to [3H]AMP hydrolysis after 30 mins by scintillation counting.
Series [2] is described as follows: Solubility of the compound in phosphate buffer at pH 6.8. The class given is physicochemical.
For series [3], the target named is 3',5'-cyclic-AMP phosphodiesterase 4B (Homo sapiens, UniProt Q07343). As to the kind of experiment: Inhibition of human PDE4B expressed in insect cells assessed as inhibition of [3H]cAMP to [3H]AMP hydrolysis after 30 mins by scintillation counting.
For series [4], the target named is cGMP-inhibited 3',5'-cyclic phosphodiesterase 3A (Homo sapiens, UniProt Q14432). As to the kind of experiment: Inhibition of PDE3A (unknown origin).
The target of series [5] is cGMP-specific 3',5'-cyclic phosphodiesterase (Homo sapiens, UniProt O76074). As to the kind of experiment: Inhibition of PDE5A (unknown origin).
Series [6] deals with Mus musculus. As to the kind of experiment: Antiinflammatory activity in ICR mouse ear edema model assessed as inhibition of TPA-induced edema at 1% W/V per ear administered topically 30 mins before TPA challenge. The format is functional.
The subject of series [7] is Mus musculus. As to the kind of experiment: Antiinflammatory activity in ICR mouse ear edema model assessed as inhibition of TPA-induced edema at 0.3 % W/V per ear administered topically 30 mins before TPA challenge. The class given is functional.
Series [8] concerns Lymphocyte. Description: Inhibition of IL2 production in activated mouse lymphocytes after 3 hrs by ELISA. The class given is functional, cell-based.

Structures are written as SMILES. ≈ marks a conversion by molar mass, not a printed value.

Chain of cGMP-inhibited 3',5'-cyclic phosphodiesterase 3A (Q14432 whole entry): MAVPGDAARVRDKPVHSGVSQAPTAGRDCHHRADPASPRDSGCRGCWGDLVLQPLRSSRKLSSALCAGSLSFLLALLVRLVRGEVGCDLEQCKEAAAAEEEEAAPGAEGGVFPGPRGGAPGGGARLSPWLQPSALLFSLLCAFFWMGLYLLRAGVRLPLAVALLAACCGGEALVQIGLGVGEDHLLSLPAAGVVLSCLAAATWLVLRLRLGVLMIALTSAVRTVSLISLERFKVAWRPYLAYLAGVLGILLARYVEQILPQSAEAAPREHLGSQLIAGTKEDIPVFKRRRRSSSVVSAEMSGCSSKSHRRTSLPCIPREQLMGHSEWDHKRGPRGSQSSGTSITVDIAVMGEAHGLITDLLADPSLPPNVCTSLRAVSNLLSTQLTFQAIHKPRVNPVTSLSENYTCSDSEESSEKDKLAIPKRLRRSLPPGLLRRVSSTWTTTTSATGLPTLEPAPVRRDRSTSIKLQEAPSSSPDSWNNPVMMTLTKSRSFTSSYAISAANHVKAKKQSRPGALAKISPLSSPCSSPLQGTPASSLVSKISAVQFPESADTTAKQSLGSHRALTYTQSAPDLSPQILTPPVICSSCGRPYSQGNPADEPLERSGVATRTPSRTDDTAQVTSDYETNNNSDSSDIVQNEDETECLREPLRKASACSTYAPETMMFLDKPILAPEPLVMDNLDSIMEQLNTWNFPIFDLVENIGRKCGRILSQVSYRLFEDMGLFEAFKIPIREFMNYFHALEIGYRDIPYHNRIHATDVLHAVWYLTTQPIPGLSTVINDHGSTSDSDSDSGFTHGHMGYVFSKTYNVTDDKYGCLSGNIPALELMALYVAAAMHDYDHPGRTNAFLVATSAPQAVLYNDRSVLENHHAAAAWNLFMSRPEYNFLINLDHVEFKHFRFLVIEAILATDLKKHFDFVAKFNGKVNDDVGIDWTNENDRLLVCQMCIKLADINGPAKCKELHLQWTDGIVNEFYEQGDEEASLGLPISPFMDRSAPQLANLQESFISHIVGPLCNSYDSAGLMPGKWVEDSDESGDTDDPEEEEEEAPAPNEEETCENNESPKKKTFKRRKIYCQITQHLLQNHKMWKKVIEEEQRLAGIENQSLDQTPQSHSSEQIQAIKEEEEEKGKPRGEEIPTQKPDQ
Chain of 3',5'-cyclic-AMP phosphodiesterase 4B (Q07343 whole entry): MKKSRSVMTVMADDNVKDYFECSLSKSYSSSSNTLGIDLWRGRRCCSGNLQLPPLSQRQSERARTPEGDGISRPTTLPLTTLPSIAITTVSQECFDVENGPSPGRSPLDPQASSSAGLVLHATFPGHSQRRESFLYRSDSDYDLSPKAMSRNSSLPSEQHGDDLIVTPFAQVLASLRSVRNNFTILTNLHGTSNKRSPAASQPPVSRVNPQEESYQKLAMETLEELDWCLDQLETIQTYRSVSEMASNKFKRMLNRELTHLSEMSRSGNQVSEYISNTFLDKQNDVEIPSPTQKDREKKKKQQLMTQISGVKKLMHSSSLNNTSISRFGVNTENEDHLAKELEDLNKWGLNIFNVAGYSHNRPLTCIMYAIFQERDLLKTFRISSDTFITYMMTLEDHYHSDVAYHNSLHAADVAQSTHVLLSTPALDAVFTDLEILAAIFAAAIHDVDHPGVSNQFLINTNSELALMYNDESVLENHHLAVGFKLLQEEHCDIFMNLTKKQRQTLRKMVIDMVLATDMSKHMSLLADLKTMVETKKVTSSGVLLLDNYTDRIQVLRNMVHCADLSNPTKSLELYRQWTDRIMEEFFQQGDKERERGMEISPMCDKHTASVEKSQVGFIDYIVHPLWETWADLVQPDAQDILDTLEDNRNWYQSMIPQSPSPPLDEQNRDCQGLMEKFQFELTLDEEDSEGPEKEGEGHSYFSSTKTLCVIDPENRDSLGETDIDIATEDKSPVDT
Chain of High affinity 3',5'-cyclic-AMP phosphodiesterase 7A (Q13946 whole entry): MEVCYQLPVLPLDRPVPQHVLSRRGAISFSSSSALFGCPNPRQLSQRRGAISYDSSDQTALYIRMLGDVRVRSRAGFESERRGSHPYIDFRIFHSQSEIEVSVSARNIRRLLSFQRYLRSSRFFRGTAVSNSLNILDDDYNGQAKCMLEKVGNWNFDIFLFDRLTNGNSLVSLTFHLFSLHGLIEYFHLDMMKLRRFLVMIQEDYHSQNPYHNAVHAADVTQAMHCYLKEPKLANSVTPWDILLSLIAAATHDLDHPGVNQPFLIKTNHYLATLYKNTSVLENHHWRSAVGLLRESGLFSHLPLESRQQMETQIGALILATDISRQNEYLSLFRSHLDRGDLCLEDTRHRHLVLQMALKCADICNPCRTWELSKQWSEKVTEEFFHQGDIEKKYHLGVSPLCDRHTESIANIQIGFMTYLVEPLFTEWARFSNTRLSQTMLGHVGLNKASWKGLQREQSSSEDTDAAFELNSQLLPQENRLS

What is called IC50 is the concentration needed to halve the response being measured. As a reminder, the solubility is the dissolved amount per volume that the medium holds. Read a high solubility as a readily soluble substance. Regarding `CCn1c(N[C@H]2CC[C@H](C(=O)O)CC2)nc2ccsc2c1=O`, in series [1], the IC50 was 1300 nM. The compound also returned a solubility in series [2] of 450 µg/mL (≈ 1400 µM).
As to `CCn1c(NC(C)C)nc2c(C3CCNCC3)csc2c1=O`, the concentration for half-maximal inhibition (IC50) in series [1] is 190 nM; in series [3], 14000 nM. This compound also displayed a solubility in series [2] of 1100 µg/mL (≈ 3430 µM).
On to `CCn1c(NC(C)C)nc2c(C3CCN(C(=O)c4ncccc4C)C3)csc2c1=O` (stereo not given), for which the half-inhibitory concentration (IC50) is 1.4 nM in series [1]; 140 nM in series [3]; 1300 nM in series [4]; 3.1 µM in series [5]; 270 nM in series [8]. Besides, in series [2], the concentration in solution (solubility) was 64 µg/mL (≈ 150 µM). Also, the “inhibition (INH)” value was found to be 77% in series [6] and 62% in series [7].
`CCn1c(NC(C)C)nc2c(C3CCN(C(C)C)CC3)csc2c1=O`: the half-inhibitory concentration (IC50) in series [1] is 170 nM; in series [3] it was 25000 nM; in series [8], > 3000 nM. The compound also came in with a solubility in series [2] of 350 µg/mL (≈ 965 µM).
Take `CCn1c(NC2CC2)nc2ccsc2c1=O`: in series [1], the IC50 stood at 2600 nM. Besides, the solubility in series [2] worked out at 430 µg/mL (≈ 1830 µM).
With `CCn1c(NC(C)C)nc2c(C3CCN(C(=O)c4ccccc4)C3)csc2c1=O` (stereo not given), the figures for the IC50 in series [1], in series [3] and in series [8] were 1.5 nM, 380 nM and 760 nM, respectively. Further, the concentration in solution in series [2] (solubility) was 21 µg/mL (≈ 51.2 µM).
On to `CCn1c(NC(C)C)nc2c(C3CCN(C(=O)CC(C)C)C3)csc2c1=O` (stereo not given), for which the concentration for half-maximal inhibition (IC50) in series [1] amounted to 8.1 nM; in series [3], 2300 nM; in series [8], 1800 nM. For the same compound, in series [2], the solubility was 15 µg/mL (≈ 38.4 µM).
`CCn1c(NC(C)C)nc2c(C3CCN(C(C)=O)C3)csc2c1=O` (stereo not given): the IC50 in series [1] was determined as 15 nM; in series [3], 1900 nM. The concentration in solution in series [2] (solubility) was 470 µg/mL (≈ 1350 µM).
With `CCn1c(NC(C)C)nc2c(C3CCCN(C(C)=O)C3)csc2c1=O` (stereo not given), the IC50 stood at 5.1 nM in series [1], 560 nM in series [3] and 750 nM in series [8]. In series [2], this compound came in with a solubility of 230 µg/mL (≈ 634 µM).
For `CCn1c(NC(C)C)nc2c(-c3cccnc3)csc2c1=O`, the results for the IC50 in series [1] and in series [3] were 4.4 nM and 520 nM, respectively. In series [2], the solubility worked out at 5.8 µg/mL (≈ 18.4 µM).
Take `CCn1c(NC(C)C)nc2c(C3CCN(C(=O)c4cccc(C)n4)C3)csc2c1=O` (stereo not given): the IC50 in series [1] was found to be 3.3 nM; in series [3], 46 nM; in series [4] it was 1600 nM; in series [5], 2.3 µM; in series [8] it was 150 nM. In series [2], this compound returned a solubility of 150 µg/mL (≈ 352 µM). For the same compound, the “inhibition (INH)” value in series [6] is recorded as 96%; in series [7], 65%.
Consider `CCn1c(NC(C)C)nc2c(C3CCN(c4ccccn4)CC3)csc2c1=O`, for which the IC50 is 6.8 nM in series [1], 440 nM in series [3] and > 3000 nM in series [8].
Regarding `CCn1c(NC2CCC2)nc2ccsc2c1=O`, the half-maximal inhibitory concentration (IC50) turned out to be 300 nM in series [1] and 4800 nM in series [3]. Moreover, the solubility in series [2] turned out to be 6.3 µg/mL (≈ 25.3 µM).
Turning to `CCn1c(NC(C)C)nc2c(C3CCN(C(=O)c4ccccn4)C3)csc2c1=O` (stereo not given), the IC50 is 2.7 nM in series [1]; 200 nM in series [3]; 3300 nM in series [4]; 3 µM in series [5]; 290 nM in series [8]. Also, the solubility in series [2] stood at 38 µg/mL (≈ 92.3 µM). In addition, the “inhibition (INH)” value in series [6] is 72%; in series [7], 45%.
As to `CCNc1nc2ccsc2c(=O)n1CC`, in series [1], the IC50 was 2900 nM. Besides, the concentration in solution in series [2] (solubility) came to 240 µg/mL (≈ 1070 µM).
As for `CCn1c(NC(C)C)nc2c(-c3ccnc(OC)c3)csc2c1=O`, the figures for the concentration for half-maximal inhibition (IC50) in series [1] and in series [3] were 4.6 nM and 420 nM, respectively. The compound also returned a solubility in series [2] of 2.4 µg/mL (≈ 6.97 µM).
For `CCn1c(NC(C)C)nc2c(-c3cncnc3)csc2c1=O`, in that order: 7.6 nM, 1100 nM and 18 µg/mL (≈ 57.1 µM).
Turning to `CCCNc1nc2ccsc2c(=O)n1CC`, in series [1], the concentration for half-maximal inhibition (IC50) is 1400 nM. The solubility in series [2] amounted to 69 µg/mL (≈ 291 µM).
As to `CCn1c(CC(C)C)nc2ccsc2c1=O`, the IC50 in series [1] amounted to 4700 nM.
For the compound `CCn1c(NC(C)(C)C)nc2ccsc2c1=O`, in series [1], the IC50 was 1500 nM. The compound further had a solubility in series [2] of 3.7 µg/mL (≈ 14.7 µM).
Turning to `CCn1c(NC(C)C)nc2c(C3CCN(C(C)=O)CC3)csc2c1=O`, the figures for the IC50 in series [1], in series [3] and in series [8] were 20 nM, 1500 nM and 2000 nM, respectively. The compound further registered a solubility in series [2] of 74 µg/mL (≈ 204 µM).
`CCn1c(NC(C)C)nc2ccsc2c1=O` returned a solubility in series [2] of 190 µg/mL (≈ 801 µM).
For `CCn1c(N[C@H]2CC[C@H](O)CC2)nc2ccsc2c1=O`, the IC50 was 2300 nM in series [1] and 24000 nM in series [3]. The solubility in series [2] was determined as 74 µg/mL (≈ 252 µM).
For `CCn1c(NC(C)C)nc2c(-c3ccco3)csc2c1=O`, in that order: 12 nM, 550 nM and 0.1 µg/mL (≈ 0.33 µM).
With `CCn1c(NC(C)C)nc2c(C3CCN(C(=O)C(C)C)C3)csc2c1=O` (stereo not given), the IC50 in series [1] is 8.4 nM; in series [3] it was 1400 nM; in series [8], > 1000 nM. In addition, in series [2], the solubility was found to be 130 µg/mL (≈ 345 µM).
`CCn1c(NC2CCOCC2)nc2ccsc2c1=O`: the IC50 in series [1] worked out at 430 nM; in series [3], 12000 nM. This compound also had a solubility in series [2] of 37 µg/mL (≈ 132 µM).
On to `CCn1c(N[C@H]2CC[C@H](C(=O)OC)CC2)nc2ccsc2c1=O`, for which the IC50 in series [1] was 2100 nM. In series [2], this compound displayed a solubility of 13 µg/mL (≈ 38.8 µM).
Regarding `CCn1c(NC(C)C)nc2c(-c3sc(C)nc3C)csc2c1=O`, the concentration for half-maximal inhibition (IC50) in series [1] was 6.4 nM; in series [3], 200 nM. In series [2], this compound yielded a solubility of 4.5 µg/mL (≈ 12.9 µM).
